The test system of the experiment is M. tuberculosis H37Rv growth inhibition with meropenem. In words: dose response, H37Rv, with and without meropenem (AID 434987).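 Also: growth over 7 days at 37 °C before Alamar Blue read on day 9.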
Setting [1] is: M. tuberculosis H37Rv growth inhibition, measured here: IC50 without meropenem.
Setting [2] is: M. tuberculosis H37Rv growth inhibition, measured here: IC90 without meropenem.
Where [3] appears, read: measured here: IC90 with meropenem.

The source made the active and inactive calls. No rule for the calls is given here.

The IC50 is the midpoint of a concentration-inhibition curve. The term IC90 denotes the concentration at which the effect reaches the 90% level. A higher IC90 goes with weaker potency. Take `COc1cc(/C=C/C(=O)OCC(=O)Nc2ccc(Cl)cn2)ccc1O`: the IC50 is 39.4 µM. For the same molecule, the concentration for half-maximal inhibition (IC50) under setting [1] is above 100 µM. This molecule also returned an IC90 under setting [2] above 100 µM. Moreover, the concentration for an effect of 90% (IC90) under setting [3] is above 100 µM.
For `C/C(=N\NC(N)=S)c1ccc(-n2ccnc2)cc1`, the IC50 was 6.58 µM. Besides, under setting [1], the IC50 is above 100 µM. This molecule came in with an IC90 under setting [2] above 100 µM. The molecule also returned a concentration for an effect of 90% (IC90) under setting [3] above 100 µM.
On to `O=C(Nc1cccc(S(=O)(=O)NCc2ccco2)c1)c1cc(-c2ccc(F)cc2)nc2ccccc12`, for which the IC50 was 97.4 µM (inactive). This molecule also showed a half-inhibitory concentration (IC50) under setting [1] above 100 µM. Moreover, the 90% effect concentration (IC90) under setting [2] was above 100 µM. This molecule also yielded a concentration for an effect of 90% (IC90) under setting [3] above 100 µM.
As to `N#Cc1c(NC(=O)CSc2nc(-c3ccco3)cc(C(F)(F)F)n2)sc2c1CCCC2`, the IC50 was > 100 µM (inactive). Besides, the IC50 under setting [1] is above 100 µM. This molecule also gave an IC90 under setting [2] above 100 µM. Under setting [3], this molecule yielded an IC90 above 100 µM.
`O=C(N/N=C\c1cn[nH]c1-c1ccc(Cl)cc1)c1cccs1`: the IC50 is > 100 µM (inactive). The molecule also had an IC50 under setting [1] above 100 µM. For the same molecule, the IC90 under setting [2] is above 100 µM. Under setting [3], this molecule gave a concentration for an effect of 90% (IC90) above 100 µM.
Take `O=C(NCc1ccco1)c1cc2n(n1)C(C(F)(F)F)CC(c1ccc(F)cc1)N2` (stereo not given): the IC50 is > 100 µM (inactive). Under setting [1], this molecule displayed an IC50 above 100 µM. Under setting [2], this molecule gave an IC90 above 100 µM. This molecule displayed an IC90 under setting [3] above 100 µM.
With `Cn1nnnc1Sc1ncnc2scc(-c3ccc(C(F)(F)F)cc3)c12`, the IC50 was 6.75 µM (inactive). Moreover, the concentration for half-maximal inhibition (IC50) under setting [1] is 14.3 µM. Under setting [2], this molecule came in with an IC90 of 24.4 µM. The IC90 under setting [3] was 15 µM.
For `OC(COC(c1ccccc1)c1ccccc1)CN1CCN(c2cccc(Cl)c2)CC1` (stereo not given), in that order: 44.6 µM (inactive), 47.4 µM, above 100 µM and above 100 µM.
Consider `COc1ccc(NC(=O)CCC2CCCC2)cc1OC`, for which the IC50 is > 100 µM (inactive). Further, under setting [1], the IC50 is above 100 µM. Further, under setting [2], the IC90 was above 100 µM. The molecule further registered an IC90 under setting [3] above 100 µM.
For the molecule `O=C(CCS(=O)(=O)c1ccc(F)cc1)Nc1nnc(-c2cccs2)o1`, the IC50 was 2.94 µM. The same molecule came in with an IC50 under setting [1] of 47.2 µM. The IC90 under setting [2] was above 100 µM. This molecule also returned a concentration for an effect of 90% (IC90) under setting [3] above 100 µM.
As to `O=C(Nc1ccc(C(F)(F)F)cc1)c1cc(-c2cccnc2)nc2ccc(Br)cc12`, the IC50 is > 100 µM (inactive). Further, the IC50 under setting [1] was above 100 µM. Further, the IC90 under setting [2] was above 100 µM. Besides, the 90% effect concentration (IC90) under setting [3] is above 100 µM.
Consider `N#CC1=C2C=Cc3ccccc3N2CCCC1=O`, for which the half-maximal inhibitory concentration (IC50) is 21.6 µM. In addition, under setting [1], the IC50 worked out at 93.3 µM. Also, the 90% effect concentration (IC90) under setting [2] was above 100 µM. Also, under setting [3], the IC90 was above 100 µM.
As to `Cc1[nH]n(-c2ccccc2)c(=O)c1/C=N/NC(=O)c1cccc([N+](=O)[O-])c1`, the 50% inhibitory concentration (IC50) is 5.43 µM. The molecule also displayed a 50% inhibitory concentration (IC50) under setting [1] of 34.2 µM. Besides, under setting [2], the IC90 was 55.1 µM. The same molecule registered an IC90 under setting [3] of 70.7 µM.
For `Cc1cccc(Nc2nnc(SCC(=O)Nc3ncc(C(F)(F)F)cc3Cl)s2)c1C`, in that order: 7.31 µM (inactive), 13.4 µM, above 100 µM and 21.5 µM.
For `CNC(=S)N/N=C1\C(=O)c2cccc3cccc1c23`, in that order: 20.1 µM, above 100 µM, above 100 µM and above 100 µM.
For `O=C(c1cccc(C(=O)N2CCN(c3ccc(F)cc3)CC2)c1)N1CCN(c2ccc(F)cc2)CC1` the same measures were 93.2 µM (inactive), 95.2 µM, above 100 µM and above 100 µM.
Regarding `COc1ccc(C(=O)Nc2ccc(C(=O)OCC(=O)c3ccccc3)cc2)cc1`, the IC50 was > 100 µM (inactive). This molecule also showed a concentration for half-maximal inhibition (IC50) under setting [1] above 100 µM. The same molecule displayed a 90% effect concentration (IC90) under setting [2] above 100 µM. Under setting [3], this molecule showed an IC90 above 100 µM.
With `COc1ccc(NC(=O)c2cc(Br)ccc2Cl)c(OC)c1`, the half-inhibitory concentration (IC50) was 23.2 µM. The molecule also came in with an IC50 under setting [1] above 100 µM. The molecule further yielded an IC90 under setting [2] above 100 µM. Moreover, the concentration for an effect of 90% (IC90) under setting [3] is above 100 µM.
Take `CCSc1nnc(NC(=O)CSc2nccn2-c2cccc(C)c2)s1`: the IC50 is > 100 µM (inactive). This molecule also came in with a concentration for half-maximal inhibition (IC50) under setting [1] above 100 µM. Moreover, the 90% effect concentration (IC90) under setting [2] was above 100 µM. Also, the IC90 under setting [3] is above 100 µM.
As to `Cn1nc(-c2ccc(OCC(=O)NCC3CCCO3)cc2)c2ccccc2c1=O` (stereo not given), the IC50 is > 100 µM (inactive). Besides, the half-inhibitory concentration (IC50) under setting [1] was above 100 µM. This molecule also registered an IC90 under setting [2] above 100 µM. In addition, the IC90 under setting [3] was above 100 µM.
For the molecule `O=c1[nH]c(CSc2nnc3ccccn23)nc2ccccc12`, the IC50 was > 100 µM (inactive). For the same molecule, under setting [1], the half-inhibitory concentration (IC50) is above 100 µM. The same molecule gave an IC90 under setting [2] above 100 µM. Also, under setting [3], the IC90 was above 100 µM.
Take `Nc1c(C(=O)c2cccs2)sc2nsc(SCCN3CCCCC3)c12`: the IC50 was > 100 µM (inactive). In addition, the 50% inhibitory concentration (IC50) under setting [1] was above 100 µM. In addition, under setting [2], the IC90 is above 100 µM. Under setting [3], this molecule registered an IC90 above 100 µM.
On to `COC(=O)CNC(c1ccccc1Cl)c1cc(Br)ccc1NC(=O)CCN1CCOCC1` (stereo not given), for which the concentration for half-maximal inhibition (IC50) is 19.8 µM. The half-maximal inhibitory concentration (IC50) under setting [1] came out at 49.1 µM. The same molecule returned a 90% effect concentration (IC90) under setting [2] of 53.7 µM. The molecule further came in with an IC90 under setting [3] of 34.3 µM.
For `CC1CC1C(=O)Nc1nc(-c2cccs2)c(-c2cccs2)s1` (stereo not given) the same measures were 94.3 µM (inactive), above 100 µM, above 100 µM and above 100 µM.
As to `CCC(CC)NC(=O)CON=C1c2ccccc2-c2ccccc21`, the IC50 is > 100 µM (inactive). Under setting [1], the IC50 is above 100 µM. Moreover, the IC90 under setting [2] was above 100 µM. For the same molecule, the concentration for an effect of 90% (IC90) under setting [3] was above 100 µM.
In the case of `CC(C)(C)C1=Nn2c(nnc2-c2ccccc2F)SC1`, the IC50 is 17.3 µM. The molecule further came in with a concentration for half-maximal inhibition (IC50) under setting [1] above 100 µM. Further, the IC90 under setting [2] is above 100 µM. The same molecule gave an IC90 under setting [3] of 78.3 µM.
`CCOc1nnnc2c1sc1nc(N3CCOCC3)c3c(c12)CCCC3`: the IC50 is > 100 µM (inactive). Also, the IC50 under setting [1] is above 100 µM. The same molecule returned an IC90 under setting [2] above 100 µM. This molecule came in with a 90% effect concentration (IC90) under setting [3] above 100 µM.
Consider `COc1ccccc1C(=O)Nc1ccc2c3c(cccc13)CC2`, for which the IC50 was 8.08 µM. Moreover, the IC50 under setting [1] came to 35.9 µM. This molecule also had an IC90 under setting [2] above 50 µM. Besides, the concentration for an effect of 90% (IC90) under setting [3] is above 100 µM.
For `CC(C(=O)Nc1cc([N+](=O)[O-])ccc1Cl)N1CCN(c2ccccc2O)CC1` (stereo not given), in that order: > 100 µM (inactive), above 100 µM, above 100 µM and above 100 µM.
For `COc1ccc(-c2csc(NC(CO)c3nc4ccccc4n3Cc3ccc(C)cc3)n2)cc1` (stereo not given) the same measures were 25 µM (inactive), 48.4 µM, 57.2 µM and 26.4 µM.
For `c1ccc(-c2ccc(C3=Nn4c(Cn5nnc6ccccc65)nnc4SC3)cc2)cc1` the same measures were 53.5 µM (inactive), 84.4 µM, above 100 µM and above 100 µM.
In the case of `Cc1ccc(C(C)C)c(OCc2ccc(C(=O)N/N=C/c3ccc(C(=O)O)cc3)cc2)c1`, the half-maximal inhibitory concentration (IC50) is 13.4 µM. The half-maximal inhibitory concentration (IC50) under setting [1] was 43.3 µM. Moreover, the 90% effect concentration (IC90) under setting [2] amounted to 84.9 µM. The molecule also yielded an IC90 under setting [3] of 49.5 µM.
For `Cc1ncc(CCl)c2c1OC(C)(C)OC2`, in that order: 42.5 µM (inactive), 89.2 µM, above 100 µM and above 100 µM.
For `O=C(NNC(=O)c1ccc(Oc2cc(Cl)cc(Cl)c2)o1)c1ccccc1` the same measures were > 100 µM (inactive), above 100 µM, above 100 µM and above 100 µM.
For `CCC(=O)NC(=S)Nc1ccc(NC(=O)c2ccc(C)c([N+](=O)[O-])c2)cc1`, in that order: > 100 µM (inactive), above 100 µM, above 100 µM and above 100 µM.
On to `COc1ccc(/C=N/Nc2nc(-c3ccc(C)cc3)c(NC(C)=O)s2)cc1`, for which the IC50 is 24.2 µM. Moreover, the IC50 under setting [1] was above 100 µM. The 90% effect concentration (IC90) under setting [2] is above 100 µM. Further, the 90% effect concentration (IC90) under setting [3] was above 100 µM.
As to `Nc1ccc(C(=O)O)c(O)c1`, the IC50 was 0.25 µM (inactive). Under setting [1], this molecule registered a half-inhibitory concentration (IC50) below 0.2 µM. The same molecule came in with a 90% effect concentration (IC90) under setting [2] of 7.65 µM. Also, the IC90 under setting [3] worked out at 1.88 µM.
For `O=C(CCN1C(=O)c2ccccc2S1(=O)=O)Nc1ccc(Cl)cc1`, in that order: > 100 µM (inactive), above 100 µM, above 100 µM and above 100 µM.
For `CC(=O)Nc1nonc1-c1nc2ccccc2n1CCC(C)C` the same measures were > 100 µM (inactive), above 100 µM, above 100 µM and above 100 µM.
Turning to `COc1ccc2[nH]cc(C(=O)CCl)c2c1`, the IC50 was 2.68 µM. The IC50 under setting [1] was determined as 9.54 µM. Under setting [2], this molecule came in with an IC90 of 31 µM. Under setting [3], this molecule had a 90% effect concentration (IC90) above 100 µM.
For `O=C(CCNc1ccccc1)c1cccc([N+](=O)[O-])c1`, in that order: 11.7 µM, above 100 µM, above 100 µM and 45.8 µM.
As to `Cc1ccc(CN2CCSc3ccc(C(=O)NC4CCN(Cc5ccccc5)CC4)cc32)cc1`, the IC50 is > 100 µM (inactive). Besides, under setting [1], the half-inhibitory concentration (IC50) is above 100 µM. The molecule further showed a 90% effect concentration (IC90) under setting [2] above 100 µM. Also, the IC90 under setting [3] is above 100 µM.
Take `COc1cc(CNCCO)cc(Br)c1OCc1ccccc1Cl`: the IC50 is 46.2 µM (inactive). Under setting [1], this molecule had an IC50 of 47.5 µM. Under setting [2], this molecule registered a 90% effect concentration (IC90) of 53.7 µM. Moreover, the concentration for an effect of 90% (IC90) under setting [3] was found to be 52.7 µM.
For `O=C(Nc1ccccc1Cl)c1csc(-c2cccnc2)n1` the same measures were 23.9 µM, 82.3 µM, above 100 µM and above 100 µM.
For `C/C(=N\NC(=S)NCc1ccccc1)c1cccc(Br)c1`, in that order: > 100 µM (inactive), above 100 µM, above 100 µM and above 100 µM.

The values above are taken from PubChem BioAssay AID434987 (Southern Research Specialized Biocontainment Screening …, 2010).
